Literature values as cited in US20100055177A1, “MODIFIED RELEASE COMPOSITION OF LEVETIRACETAM AND PROCESS FOR THE PREPARATION THEREOF” (priority 2008, published 2010).

## CC[C@@H](C(N)=O)N1CCCC1=O [levetiracetam, (−)-(S)-(alpha)-ethyl-2-oxo-1-pyrrolidine acetamide]
  water solubility: about 1.04 g/ml
